The record followed here is article PMC12257394, “Design, Synthesis, and Biological Evaluation of Ferrocenyl–Cyclo-(Gly‑L‑Pro) Hybrids Sensitizing Multidrug-Resistant Cancer Cells to Anticancer Agents” (ACS Medicinal Chemistry Letters, 2025).

Where only a bound is given, the exact number is not on record here.

Common to all, as to assay type: cell-based, human
In data set [1] the test system is MRC-5 fibroblasts. In words: Neutral red uptake viability assay, MRC-5. Conditions: for survival rate: MRC-5, 10 μM, 72 h exposure, n = 3, ± SD; for Surviwal rate of MRC-5 at 10 microM: MRC-5, 10 microM (xlsx). How it is done: (§1) The normal lung fibroblast MRC-5 and colorectal adenocarcinoma SW620 cell lines used in this experiment were purchased from American Type Culture Collection (USA) via LGC […]
(§2) Standards. Multidrug-resistant variants of SW620 cells were developed in our laboratory as described previously.10, 11 All cells were cultured under standard conditions (37°C, 5% CO2, 100% humidity) in high-glucose DMEM supplemented with GlutaMaxTM, HEPES (ThermoFisher Scientific, USA), and 10% fetal bovine serum (EURx, Poland). Cells were routinely tested for potential Mycoplasma contamination using the MycoProbe Mycoplasma Detection kit (R&D System, USA).
(§3) In total, 104 cells in 100 µL of complete medium were plated per well of a 96-well plate and left overnight to allow cells to adhere to the surface. Then, the cells were exposed to a desired concentration of tested compound(s). Stock solutions were prepared in DMSO and used immediately. The final DMSO concentration was constant and nontoxic (0.1% v/v). After 70-h incubation, neutral red was added to the final concentration of 1 mM. After another 2 h, the medium was aspirated, and cells were washed twice with PBS. Dye was released using 100 µL of a solubilizer (1% acetic acid in 50% ethanol) on an orbital shaker (10 min). Absorbance was read at 540 nm using EnVision Multilabel Plate Reader (Perkin Elmer, USA). Results were expressed as % of control. The IC50 parameters were calculated using GraphPad Prism version 10 (GraphPad Software, Boston, Massachusetts USA). […]
(§4) All experiments were performed in triplicate (n = 3).

Data set [2] relates to SW620D cells (doxorubicin-resistant). Nature of the data set: Neutral red uptake viability assay, SW620D. As to conditions: 72 h; for survival rate: n = 3, ± SD; for IC50: n = 3, read-out: Cytotoxic activity IC50 (95% CI). The method, then:
(§5) In general, compounds 4a–e exerted little or no cytotoxic effect on either SW620 or multidrug-resistant sublines even at 10 μM, with the remarkable exception of SW620C (cisplatin-selected variant of SW620) cells, which turned out to be relatively susceptible toward ferrocenyl 4a–c. […] This trend may reflect steric or electronic contributions to cellular uptake or interaction with intracellular targets. […] However, since E/Z isomeric data are currently available only for compound 4c, this hypothesis requires validation. To quantify this effect, IC50 values were determined (Table ). […]
as §1, §2
(§6) In total, 104 cells in 100 µL of complete medium were plated per well of a 96-well plate and left overnight to allow cells to adhere to the surface. Then, the cells were exposed to a desired concentration of tested compound(s). Stock solutions were prepared in DMSO and used immediately. The final DMSO concentration was constant and nontoxic (0.1% v/v). After 70-h incubation, neutral red was added to the final concentration of 1 mM. After another 2 h, the medium was aspirated, and cells were washed twice with PBS. Dye was released using 100 µL of a solubilizer (1% acetic acid in 50% ethanol) on an orbital shaker (10 min). Absorbance was read at 540 nm using EnVision Multilabel Plate Reader (Perkin Elmer, USA). Results were expressed as % of control. The IC50 parameters were calculated using GraphPad Prism version 10 (GraphPad Software, Boston, Massachusetts USA).
(§7) The enhancement of reversal potency (ERP) value determination
(§8) For MDR reversal assays, cytotoxic agents were co-administered with compounds 4a–4e at equimolar concentrations in a range of 10 nM to 100 µM. IC₅₀ values were determined in ABCB1-overexpressing SW620 cell line variants. The enhancement of reversal potency (ERP) was calculated using the following formula: ERP = IC₅₀(drug)MDR / IC₅₀(drug + compound)MDR. All experiments were performed in triplicate (n = 3).

The test system of data set [3] is SW620M cells (methotrexate-resistant). In words: Neutral red uptake viability assay, SW620M. As to conditions: 72 h; for survival rate: n = 3, ± SD; for IC50: n = 3, read-out: Cytotoxic activity IC50 (95% CI). How it is done: as §5, §1, §2, §3, §4
The test system of data set [4] is SW620V cells (vincristine-resistant). In words: Neutral red uptake viability assay, SW620V. Conditions: 72 h; for survival rate: n = 3, ± SD; for IC50: n = 3, read-out: Cytotoxic activity IC50 (95% CI). The method, then:
as §5, §1, §2, §6, §7, §8

Data set [5] has as its system SW620Mito cells (mitoxantrone-resistant). Nature of the data set: Neutral red uptake viability assay, SW620Mito. Conditions: 72 h; for survival rate: n = 3, ± SD; for IC50: n = 3, read-out: Cytotoxic activity IC50 (95% CI). How it is done: as §5, §1, §2, §3, §4
Data set [6] concerns ABCB1-overexpressing SW620E cells. In words: MDR reversal assay (ERP), SW620E. Conditions: for ERP value, etoposide + compound: SW620E (xlsx); for ERP = IC50(drug)MDR/IC50(drug+4)MDR: etoposide, SW620E.
Excerpt: (§9) We investigated the potency of 4a–e to inhibit ABC transporters (ABCB1, ABCC1, and ABCG2) by determining their enhancement of reversal potency (ERP) values. ERP represents fold changes in the IC50 values of anticancer drugs in multidrug-resistant cancer sublines (ABCB1-overexpressing SW620D, SW620E, and SW620V; ABCC1-overexpressing SW620M; ABCG2-overexpressing SW620C and SW620Mito) exposed to a combination of the investigated compounds and anticancer agents at equimolar concentrations, compared with values obtained with drugs alone (Tables S2 and S3 and Figure ).
as §2, §6, §7, §8

The subject of data set [7] is ABCC1-overexpressing SW620M cells. In words: MDR reversal assay (ERP), SW620M. As to conditions: for ERP value, methotrexate + compound: SW620M (xlsx); for ERP = IC50(drug)MDR/IC50(drug+4)MDR: methotrexate, SW620M.
Excerpt: as §9, §2, §6, §7, §8

In data set [8] the test system is SW620 cells. In words: Synergy determination (Bliss model, SynergyFinder), SW620.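 Further: score below −10 means likely antagonism and −10 to 10 means additive.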 The text has this:
(§10) In an ideal setting, the effect of cell exposure to a combination of a chemotherapeutic and an MDR inhibitor should be synergistic. […] The highest synergy scores identified an optimal concentration range where the combination exerted its maximal effect. […] In cisplatin-resistant SW620C cells, the low or lack of synergy observed for most compounds may be due to the additive effects of cisplatin and 4 rather than a true synergistic interaction. […]
(§11) To evaluate the potential interactions between putative ABC inhibitors and anticancer drugs, we utilized the Bliss independence model, as implemented in the SynergyFinder web application.13, 14 Synergy scores and the most synergistic area scores were calculated based on the normalized dose–response matrices. A synergy score below −10 indicates likely […]
(§12) above 10 is indicative of likely synergistic interactions.
(§13) All experiments were performed at least three times, and the data were statistically analyzed

For data set [9], the system named is SW620C cells. In words: Synergy determination (Bliss model, SynergyFinder), SW620C. As to conditions: drug cisplatin + additive; for synergy score: Bliss model.
Excerpt: as §10, §11, §12, §13

Data set [10] deals with SW620E cells. In words: Synergy determination (Bliss model, SynergyFinder), SW620E. As to conditions: drug etoposide + additive; for synergy score: Bliss model.
Excerpt: as §10, §11, §12, §13

One may read the IC50 as the concentration at which inhibition is half-maximal. For the compound `O=C1N/C(=C\c2ccc(-[c-]3cccc3)cc2)C(=O)N2CCC[C@@H]12.[Fe+2].c1cc[cH-]c1` [(S,Z)-4d], the survival rate in [1] was 101 ± 7%; in data set [2] (1 μM) it was 92 ± 0.8%; in data set [2] (10 μM), 96 ± 0.9%; in [3] (1 μM) it was 99 ± 0.8%; in data set [3] (10 μM) it was 95 ± 1.5%; in [4] (1 μM), 94 ± 2.9%. The survival rate in data set [4] (10 μM) is 95 ± 3.2%; in data set [5] (1 μM), 98 ± 0.9%; in data set [5] (10 μM), 93 ± 1.1%. For the same compound, the IC50 in data set [2], in data set [3], in data set [4] and in data set [5] was above 100 µM throughout. The “ERP value, etoposide + compound” value in data set [6] stood at 5.84. Moreover, the “ERP = IC50(drug)MDR/IC50(drug+4)MDR” value in [6] was found to be 5.84; in data set [7], 0.84. In addition, the “ERP value, methotrexate + compound” value in data set [7] is 0.84. Also, the “synergy score (in parentheses)” value in data set [8] (drug cisplatin + additive) was −2.46; in data set [8] (drug etoposide + additive), 0.64; in data set [8] (drug methotrexate + additive) it was −2.64; in data set [8] (drug mitoxantrone + additive), -1.93; in data set [8] (drug vincristine + additive), -1.29. The figures for the “most synergistic area score” value in data set [9] and in [10] were 13.42 and 26.95, respectively. In addition, the synergy score in [10] is listed as 16.02.

For the compound `O=C1N/C(=C\c2ccccc2-[c-]2cccc2)C(=O)N2CCC[C@@H]12.[Fe+2].c1cc[cH-]c1` [(S,Z)-4b], the survival rate in data set [1] was found to be 92 ± 8.7%; in data set [2] (1 μM), 97 ± 1.0%; in data set [2] (10 μM), 87 ± 3.0%; in data set [3] (1 μM), 97 ± 0.8%; in [3] (10 μM) it was 96 ± 3.5%; in data set [4] (1 μM), 92 ± 0.9%. Besides, the survival rate is recorded as 95 ± 2.4% in data set [4] (10 μM), 85 ± 1.0% in [5] (1 μM) and 85 ± 1.9% in [5] (10 μM). Further, the IC50 was above 100 µM in [2], 52.2 µM in data set [3], 48.8 µM in [4] and 44.9 µM in [5]. Besides, the “ERP value, etoposide + compound” value in data set [6] is 2.22. Moreover, the “ERP = IC50(drug)MDR/IC50(drug+4)MDR” value in data set [6] turned out to be 2.22; in [7], 1.84. Moreover, the “ERP value, methotrexate + compound” value in data set [7] is recorded as 1.84. In addition, the “synergy score (in parentheses)” value is −5.00 in [8] (drug cisplatin + additive); −2.67 in [8] (drug doxorubicin + additive); −5.23 in data set [8] (drug etoposide + additive); 3.26 in [8] (drug methotrexate + additive); −3.17 in data set [8] (drug mitoxantrone + additive); 5.77 in data set [8] (drug vincristine + additive). For the same compound, the “most synergistic area score” value in data set [9] was 0.00; in data set [10], 14.42. Further, the synergy score entry in data set [9] is reported as “–2.78”; in data set [10], 3.32.

With `O=C1N/C(=C\c2ccccc2)C(=O)N2CCC[C@@H]12` [(S,Z)-4e], the survival rate came out at 102 ± 6% in data set [1]; 96 ± 0.7% in data set [2] (1 μM); 94 ± 2.9% in [2] (10 μM); 96 ± 4.8% in data set [3] (1 μM); 95 ± 4.0% in [3] (10 μM); 98 ± 0.9% in data set [4] (1 μM). The survival rate in data set [4] (10 μM) amounted to 99 ± 1.4%; in data set [5] (1 μM) it was 92 ± 1.3%; in [5] (10 μM), 94 ± 1.8%. Moreover, in [1], the “Surviwal rate of MRC-5 at 10 microM” value is on record as 102_6. Moreover, the “ERP value, etoposide + compound” value in data set [6] is reported as 0.88. The results for the “ERP = IC50(drug)MDR/IC50(drug+4)MDR” value in data set [6] and in data set [7] were 0.88 and 1.28, respectively. The “ERP value, methotrexate + compound” value in data set [7] came out at 1.28. In addition, the “synergy score (in parentheses)” value in data set [8] (drug cisplatin + additive) is recorded as −3.94; in [8] (drug doxorubicin + additive), −3.90; in data set [8] (drug etoposide + additive), −3.96; in data set [8] (drug mitoxantrone + additive) it was 1.87. The “most synergistic area score” value in data set [9] is given as 6.66; in [10], 2.22. In addition, the synergy score entry is “–3.14” in data set [9] and “–2.56” in data set [10].

Turning to `O=C1N/C(=C/c2ccccc2)C(=O)N2CCC[C@@H]12` [(S,E)-4e], the survival rate in data set [1] is on record as 117 ± 11%; in [2] (1 μM), 96 ± 2.4%; in [2] (10 μM), 95 ± 0.7%; in data set [3] (1 μM) it was 93 ± 0.3%; in [3] (10 μM) it was 95 ± 3.4%; in data set [4] (1 μM), 95 ± 2.9%. The survival rate in [4] (10 μM) is 95 ± 3.3%; in data set [5] (1 μM), 94 ± 0.7%; in data set [5] (10 μM), 96 ± 0.8%. For the same compound, in [1], the “Surviwal rate of MRC-5 at 10 microM” value is 117_11. Besides, the “ERP value, etoposide + compound” value in data set [6] turned out to be 0.88. The “ERP = IC50(drug)MDR/IC50(drug+4)MDR” value in data set [6] is reported as 0.88; in data set [7] it was 1.08. Also, the “ERP value, methotrexate + compound” value in data set [7] is 1.08. In addition, the “synergy score (in parentheses)” value is reported as −4.17 in data set [8] (drug cisplatin + additive), −4.78 in data set [8] (drug doxorubicin + additive), −1.15 in data set [8] (drug etoposide + additive) and −3.41 in data set [8] (drug mitoxantrone + additive). The entries for the “most synergistic area score” value in data set [9] and in [10] were 3.89 and 0.19, respectively. The results for the synergy score result in data set [9] and in data set [10] were “–2.78” and “–3.93”, respectively.
